In patent publication US20040106135A1, “Assay for PPAR ligand dependent gene modulation” (priority 2002, published 2004):

Columns and labels:
Type in all cases: cell-based, human
[1] = test system: LNCaP cells; assay: Transcriptional profiling by DNA microarray, LNCaP cells
Procedure: Expression profiling: Expression profiling of RNA samples was performed essentially as described (Lockhart et al., (1996) Nat. Biotechnol. 14:1675-80) using the Affymetrix human U95Av2 array. Briefly, RNA was isolated from 100 mm cell culture dishes, DNased, and 15 μg used as a template for double stranded cDNA synthesis according to standard protocols (Invitrogen). Reverse transcription was primed using a T7-modified oligo-dT primer (5-[…]-d(T)24-3′) (SEQ ID NO: 1). In vitro transcription was then performed on each double stranded cDNA synthesis, according to the manufacturer's (Enzo Diagnostics) instructions. The resultant cRNA products were purified using RNeasy columns (Qiagen), pooled, and quantitated spectrophotometrically. For each sample, 20 μg of in vitro transcribed cRNA was fragmented by heating the sample to 94° C. in the presence of 40 mM Tris-acetate, pH 8.1, 100 mM potassium acetate, and 30 mM magnesium acetate. […]
(§1) Data Analysis: Affymetrix CEL files from GeneChip 4.0 (Affymetrix) were imported into Resolver 2.0 under an empirically derived Affymetrix error model (Rosetta Inpharmatics). […] Accordingly, the statistical significance (P-value) of a given expression data point takes into account the underlying error associated with the Affymetrix transcript abundance measurements as determined by this platform-specific error model. […]

[2] = test system: ACHN cells; assay: Transcriptional profiling by DNA microarray, ACHN cells
Text: (§2) Threshold cutoffs were set at fold change >1.4; p<0.01; and statistically significant in at least 2 experiments. The genes fatty acid CoA ligase 2 (FACL2), palmitoyl acyl-CoA oxidase 1 (ACOX1), and carnitine palmitoyl acyl-CoA transferase (CPT1A) are included for comparison based on published reports that they are PPARα responsive genes in HepG2 cells over expressing PPARα (Hsu et al., (2001) J. Biol. Chem. 276:27950-8; Lawrence et al., (2001) J. Biol. Chem. 276:31521-7).
(§3) Expression profiling: Expression profiling of RNA samples was performed essentially as described (Lockhart et al., (1996) Nat. Biotechnol. 14:1675-80) using the Affymetrix human U95Av2 array. Briefly, RNA was isolated from 100 mm cell culture dishes, DNased, and 15 μg used as a template for double stranded cDNA synthesis according to standard protocols (Invitrogen). […] The resultant cRNA products were purified using RNeasy columns (Qiagen), pooled, and quantitated spectrophotometrically. […]
as §1

[3] = test system: HepG2 cells; assay: Transcriptional profiling by DNA microarray, HepG2 cells; details: endogenous levels of PPARα
Text: as §2, §3, §1

CCCCCCCN(CCc1ccc(SC(C)(C)C(=O)O)cc1)C(=O)Nc1ccc(F)cc1F [GW9578, ureido-thioisobutyric acid]
Changes in gene expression in LNCaP cells [1]: only minor changes | ADRP induction in ACHN cells [2]: significantly induced | Response of PPARα responsive genes (FACL2, CPT1, ACOX1) in HepG2 cells [3]: No response
